Results reported in patent publication US6004960A, “Pyridazinones as inhibitors of cyclooxygenase-2” (Merck Frosst Canada, Inc., priority 1998, dated 1999).

Legend:
COX-2 = biological target: T1, COX-2 (Homo sapiens, UniProt P35354); test: Whole cell assay for COX-2 using CHO transfected cell line (CHO [hCOX-2]), PGE2; type: cell-based; set-up: expressed in transfected cells; host or cells: CHO (Chinese hamster ovary), stably transfected with pCDNAIII vector; CHO [hCOX-2]; conditions: CHO [hCOX-2] cells, 10 μM AA
T1 sequence (P35354 18-604): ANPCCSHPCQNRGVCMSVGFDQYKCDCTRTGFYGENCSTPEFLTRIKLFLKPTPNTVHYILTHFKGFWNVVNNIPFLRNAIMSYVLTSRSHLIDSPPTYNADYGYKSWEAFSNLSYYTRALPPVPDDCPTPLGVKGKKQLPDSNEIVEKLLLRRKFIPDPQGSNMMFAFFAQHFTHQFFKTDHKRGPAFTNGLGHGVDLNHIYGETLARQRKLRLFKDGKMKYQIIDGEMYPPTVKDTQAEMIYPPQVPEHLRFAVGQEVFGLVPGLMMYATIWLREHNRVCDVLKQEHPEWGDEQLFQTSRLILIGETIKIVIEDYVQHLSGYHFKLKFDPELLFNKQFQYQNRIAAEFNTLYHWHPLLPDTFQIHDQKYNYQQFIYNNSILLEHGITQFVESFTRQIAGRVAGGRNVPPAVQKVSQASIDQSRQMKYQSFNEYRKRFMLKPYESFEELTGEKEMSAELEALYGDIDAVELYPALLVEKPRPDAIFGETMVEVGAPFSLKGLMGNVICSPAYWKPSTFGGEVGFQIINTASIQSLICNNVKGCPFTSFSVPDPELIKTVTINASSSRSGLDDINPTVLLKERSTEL
Description: Chinese hamster ovary (CHO) cell lines which have been stably transfected with an eukaryotic expression vector pCDNAIII containing either the human COX-1 or COX-2 cDNA's are used for the assay. These cell lines are referred to as CHO [hCOX-1] and CHO [hCOX-2], respectively. […] Drugs to be tested are dissolved in DMSO to 66.7-fold the highest test drug concentration. […] Cells (0.3×10^6 cells in 200 p) are preincubated with 3 AIl of the test drug or DMSO vehicle for 15 min at 37° C. […] Cells are then challenged in the presence or absence of drug with the AA/HBSS solution to yield a final concentration of 0.5 μM AA in the CHOhCOX-1] assay and a final concentration of 10 μM AA in the CHO [hCOX-2] assay. […] The samples are centrifuged at 300×g at 4° C. for 10 min, and an aliquot of the clarified supernatant is appropriately diluted for the determination of PGE2 levels using an enzyme-liked immunoassay for PGE2 (Correlate PGE2 enzyme immunoassay kit, Assay Designs, Inc.). Cyclooxygenase activity in the absence of test compounds is determined as the difference in PGE2 levels of cells challenged with arachidonic acid versus the PGE2 levels in cells mock-challenged with ethanol vehicle. Inhibition of PGE2 synthesis by test compounds is calculated as a percentage of the activity in the presence of drug versus the activity in the positive control samples.
(§1) In the assay, inhibition is determined by measuring the amount of prostaglandin E2 (PGE2) synthesized in the presence of arachidonic acid, cyclooxygenase-I or cyclooxygenase-2 and a putative inhibitor.

COX-1 = COX-1 (Homo sapiens, UniProt P23219); test: Assay of COX-1 activity from U937 cell microsomes; type: biochemical; set-up: Assay of COX-1 Activity from U937 cell microsomes; endogenous in cells; host or cells: U937 cells, 100,000×g microsomal pellet; conditions: PGE2, read-out: COX-1 (IC50 μM) U-937
Chain of COX-1 (P23219 24-599): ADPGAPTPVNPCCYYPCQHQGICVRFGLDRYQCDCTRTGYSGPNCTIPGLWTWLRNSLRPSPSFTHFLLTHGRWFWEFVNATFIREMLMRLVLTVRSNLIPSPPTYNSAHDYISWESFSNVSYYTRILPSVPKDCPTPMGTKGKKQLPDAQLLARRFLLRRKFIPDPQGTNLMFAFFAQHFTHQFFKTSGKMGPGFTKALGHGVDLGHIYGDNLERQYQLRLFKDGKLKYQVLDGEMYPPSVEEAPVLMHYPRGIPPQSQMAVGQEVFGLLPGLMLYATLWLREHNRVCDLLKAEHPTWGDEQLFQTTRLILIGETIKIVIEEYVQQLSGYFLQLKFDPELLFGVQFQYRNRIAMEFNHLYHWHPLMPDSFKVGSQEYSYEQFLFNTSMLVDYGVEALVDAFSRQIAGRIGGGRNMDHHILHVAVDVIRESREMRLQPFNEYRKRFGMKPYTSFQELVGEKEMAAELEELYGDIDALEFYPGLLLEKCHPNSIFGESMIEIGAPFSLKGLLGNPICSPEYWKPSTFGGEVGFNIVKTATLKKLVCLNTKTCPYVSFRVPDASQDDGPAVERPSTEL
Description: Assay of COX-1 Activity from U937 cell microsomes
U 937 cells are pelleted by centrifugation at 500×g for 5 min and washed once with phosphate-buffered saline and repelleted. […] The cell suspension is sonicated 4 times for 10 sec and is centrifuged at 10,000×g for 10 min at 4° C. The supernatant is centrifuged at 100,000×g for 1 hr at 4° C. The 100,000×g microsomal pellet is resuspended in 0.1 M Tris-HCl, pH 7.4, 10 mM EDTA to approximately 7 mg protein/ml and stored at -80° C.
Microsomal preparations are thawed immediately prior to use, subjected to a brief sonication, and then diluted to a protein concentration of 125 μg/ml in 0.1 M Tris-HCl buffer, pH 7.4 containing 10 mM EDTA, 0.5 mM phenol, 1 mM reduced glutathione and 1 μM hematin. Assays are performed in duplicate in a final volume of 250 pl. Initially, 5 µl of DMSO vehicle or drug in DMSO are added to 20 μl of 0.1 M Tris-HCl buffer, pH 7.4 containing 10 mM EDTA in wells of a 96-deepwell polypropylene titre plate. 200 μl of the microsomal preparation are then added and pre-incubated for 15 min at room temperature before addition of 25 μl of […] in 0.1 M Tris-HCl and 10 mM EDTA, pH 7.4. Samples are incubated for 40 min at room temperature and the reaction is stopped by the addition of 25 pl of 1 N HCl. Samples are neutralized with 25 μl of 1 N NaOH prior to quantitation of PGE2 content by radioimmunoassay (Dupont-NEN or Amersham assay kits). Cyclooxygenase activity is defined as the difference between PGE2 levels in samples incubated in the presence of arachidonic acid and ethanol vehicle.
as §1

CS(=O)(=O)c1ccc(-c2cnn(Cc3ccccc3)c(=O)c2-c2cccnc2)cc1 [Example 28, 2-Benzyl-5-(4-methylsulfonyl)phenyl-4-(3-pyridyl)-2H-pyridazin-3-one]
IC50 (COX-2): 0.13 µM | IC50 (COX-1): > 10 µM
